Experimental data taken from patent US20240300944A1, “NOVEL UREA DERIVATIVE COMPOUND AS RON INHIBITOR” (LG CHEM, LTD., priority 2021, published 2024).

Legend:
[1] = target: cMET (Homo sapiens, UniProt P08581); test: Inhibitory activity against MET (cMET), TR-FRET kinase assay; format: biochemical; conditions: cMET enzyme
Procedure: In addition, in order to measure the enzyme activity inhibition for cMET, the evaluation was performed in the same manner as the enzyme activity inhibition measurement experiment for the RON.
(§1) Specifically, the compound was prepared to a concentration of 1 mM with 100% DMSO and was diluted 10 times in a stepwise manner through 3-fold dilution. 2 ul of the compound diluted in a stepwise manner was added to a 96-well-plate containing 48 ul of a 1× kinase reaction buffer (50 mM HEPES (pH 7.4), 0.05% BSA, 0.005% Tween-20, 1 mM DTT, 0.5 mM MnCl2, 20 mM MgCl2).
The cMET protein was diluted to a concentration of 263 nM with a cMET storage buffer (50 mM Tris-HCl (pH 7.5), 150 mM NaCl, 0.05% Brij35, 1 mM DTT, 10% Glycerol), and then diluted again to a concentration of 2 nM with a 1× kinase reaction buffer. As a substrate cocktail, a MET-specific substrate mixture (5 uM TK peptide, […]) at a concentration 2 times the final reaction concentration.
Thereafter, a 384-well-plate was prepared, and 2.5 μl of each of the diluted compounds of Examples was added to a corresponding well of experimental group wells, and 2.5 μl of a 4% DMSO solution was dispensed into high control wells and low control wells.
(§2) Thereafter, 2.5 μL of 2 nM cMET was dispensed into the high control wells and the experimental group wells, and 2.5 μL of a 1× kinase reaction buffer was added to the low control wells, and the […] and the reaction buffer were centrifuged at room temperature for 40 seconds at 1000 RPM, and then incubated at room temperature for 20 to 30 minutes. Then, 5 μL of a substrate cocktail (2×) was dispensed into all wells, centrifuged at room temperature for 40 seconds at 1000 RPM, and then incubated at room temperature for 60 minutes. Thereafter, 5 μL of 90 mM EDTA was added to all wells to terminate the reaction, and then incubated again at room temperature for 5 minutes. Thereafter, 5 μL of a 4× phosphotyrosine antibody (Perkin Elmer) containing europium was added to all wells, and then incubated at room temperature for 60 minutes. After the incubation, the 384-well-plate was read with a Vison plate reader. At this time, the excitation wavelength was 340 nm, and the emission wavelength was 620 nm and 665 nm. The IC50 value of the compound of each Example was derived using the GraphPd Prism7 program.

[2] = target: RON (Homo sapiens, UniProt Q04912); test: Inhibitory activity against RON, TR-FRET kinase assay; format: biochemical; conditions: RON enzyme
Procedure: In order to measure the inhibitory activity of each of the compounds of Examples against RON, the IC50 of each of the compounds was measured using a Time-Resolved Fluorescence Energy Transfer Chemistry (TR-FRET).
as §1, with “7.4), 0.01%” for “7.4), 0.05% BSA, 0.005%”, “Tween-20, 5” for “Tween-20, 1”, “mM Na3VO4, 2 mM EGTA, 10” for “mM MnCl2, 20”
The RON protein was diluted to a concentration of 49.3 nM with an RON storage buffer (50 mM Tris-HCl (pH 7.5), 150 mM NaCl, 0.5 mM EDTA, 0.02% Triton X-100), and then diluted again to a concentration of 0.4 nM with a 1× kinase reaction buffer. As a substrate cocktail, a RON-specific substrate mixture (40 uM ULight-labeled Poly GT, 100 nM ATP) at a concentration 2 times the final reaction concentration.
Thereafter, a 384-well-plate was prepared, and 2.5 ul of each of the diluted compounds of Examples was added to a corresponding well of experimental group wells, and 2.5 ul of a 4% DMSO solution was dispensed into high control wells and low control wells.
as §2, with “of 0.4” for “of 2”, “nM RON” for “nM cMET”, “of 30” for “of 90”

Chain of RON (Q04912 25-1400, species assumed): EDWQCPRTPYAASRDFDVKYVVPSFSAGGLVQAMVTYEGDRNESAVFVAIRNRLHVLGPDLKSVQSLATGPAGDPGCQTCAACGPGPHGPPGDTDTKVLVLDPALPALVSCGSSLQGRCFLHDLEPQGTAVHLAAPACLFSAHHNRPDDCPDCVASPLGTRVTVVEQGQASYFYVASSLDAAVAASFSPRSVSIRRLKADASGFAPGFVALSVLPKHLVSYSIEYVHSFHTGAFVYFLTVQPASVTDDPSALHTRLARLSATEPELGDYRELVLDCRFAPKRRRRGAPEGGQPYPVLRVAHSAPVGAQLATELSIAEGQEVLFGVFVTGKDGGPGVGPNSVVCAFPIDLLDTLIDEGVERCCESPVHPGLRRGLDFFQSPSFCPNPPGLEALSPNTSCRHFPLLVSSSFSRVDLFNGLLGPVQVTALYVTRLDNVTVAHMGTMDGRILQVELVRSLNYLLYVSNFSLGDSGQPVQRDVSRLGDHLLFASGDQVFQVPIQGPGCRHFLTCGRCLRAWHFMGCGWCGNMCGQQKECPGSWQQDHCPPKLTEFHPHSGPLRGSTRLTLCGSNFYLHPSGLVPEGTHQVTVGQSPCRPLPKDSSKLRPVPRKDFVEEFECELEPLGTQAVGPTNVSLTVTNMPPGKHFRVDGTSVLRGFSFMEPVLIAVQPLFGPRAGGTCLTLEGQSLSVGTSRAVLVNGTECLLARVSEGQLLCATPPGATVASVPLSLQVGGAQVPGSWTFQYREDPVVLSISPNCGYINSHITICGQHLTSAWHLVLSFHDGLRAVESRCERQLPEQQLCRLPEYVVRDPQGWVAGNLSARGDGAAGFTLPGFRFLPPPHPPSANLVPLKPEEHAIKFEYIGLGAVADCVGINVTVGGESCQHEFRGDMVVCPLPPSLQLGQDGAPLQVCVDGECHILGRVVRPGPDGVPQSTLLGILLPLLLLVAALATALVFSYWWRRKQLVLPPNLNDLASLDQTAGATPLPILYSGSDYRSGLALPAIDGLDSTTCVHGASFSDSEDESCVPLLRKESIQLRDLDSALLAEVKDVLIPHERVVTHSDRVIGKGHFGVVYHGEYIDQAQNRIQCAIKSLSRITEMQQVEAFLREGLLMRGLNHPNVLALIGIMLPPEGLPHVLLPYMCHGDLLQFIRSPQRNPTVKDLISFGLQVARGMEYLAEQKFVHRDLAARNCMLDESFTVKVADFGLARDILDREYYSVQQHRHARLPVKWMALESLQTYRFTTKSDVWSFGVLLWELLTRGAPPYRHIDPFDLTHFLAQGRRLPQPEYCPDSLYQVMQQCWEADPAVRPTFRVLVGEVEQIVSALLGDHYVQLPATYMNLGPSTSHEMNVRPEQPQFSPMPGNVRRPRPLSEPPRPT
Chain of cMET (P08581 25-1390): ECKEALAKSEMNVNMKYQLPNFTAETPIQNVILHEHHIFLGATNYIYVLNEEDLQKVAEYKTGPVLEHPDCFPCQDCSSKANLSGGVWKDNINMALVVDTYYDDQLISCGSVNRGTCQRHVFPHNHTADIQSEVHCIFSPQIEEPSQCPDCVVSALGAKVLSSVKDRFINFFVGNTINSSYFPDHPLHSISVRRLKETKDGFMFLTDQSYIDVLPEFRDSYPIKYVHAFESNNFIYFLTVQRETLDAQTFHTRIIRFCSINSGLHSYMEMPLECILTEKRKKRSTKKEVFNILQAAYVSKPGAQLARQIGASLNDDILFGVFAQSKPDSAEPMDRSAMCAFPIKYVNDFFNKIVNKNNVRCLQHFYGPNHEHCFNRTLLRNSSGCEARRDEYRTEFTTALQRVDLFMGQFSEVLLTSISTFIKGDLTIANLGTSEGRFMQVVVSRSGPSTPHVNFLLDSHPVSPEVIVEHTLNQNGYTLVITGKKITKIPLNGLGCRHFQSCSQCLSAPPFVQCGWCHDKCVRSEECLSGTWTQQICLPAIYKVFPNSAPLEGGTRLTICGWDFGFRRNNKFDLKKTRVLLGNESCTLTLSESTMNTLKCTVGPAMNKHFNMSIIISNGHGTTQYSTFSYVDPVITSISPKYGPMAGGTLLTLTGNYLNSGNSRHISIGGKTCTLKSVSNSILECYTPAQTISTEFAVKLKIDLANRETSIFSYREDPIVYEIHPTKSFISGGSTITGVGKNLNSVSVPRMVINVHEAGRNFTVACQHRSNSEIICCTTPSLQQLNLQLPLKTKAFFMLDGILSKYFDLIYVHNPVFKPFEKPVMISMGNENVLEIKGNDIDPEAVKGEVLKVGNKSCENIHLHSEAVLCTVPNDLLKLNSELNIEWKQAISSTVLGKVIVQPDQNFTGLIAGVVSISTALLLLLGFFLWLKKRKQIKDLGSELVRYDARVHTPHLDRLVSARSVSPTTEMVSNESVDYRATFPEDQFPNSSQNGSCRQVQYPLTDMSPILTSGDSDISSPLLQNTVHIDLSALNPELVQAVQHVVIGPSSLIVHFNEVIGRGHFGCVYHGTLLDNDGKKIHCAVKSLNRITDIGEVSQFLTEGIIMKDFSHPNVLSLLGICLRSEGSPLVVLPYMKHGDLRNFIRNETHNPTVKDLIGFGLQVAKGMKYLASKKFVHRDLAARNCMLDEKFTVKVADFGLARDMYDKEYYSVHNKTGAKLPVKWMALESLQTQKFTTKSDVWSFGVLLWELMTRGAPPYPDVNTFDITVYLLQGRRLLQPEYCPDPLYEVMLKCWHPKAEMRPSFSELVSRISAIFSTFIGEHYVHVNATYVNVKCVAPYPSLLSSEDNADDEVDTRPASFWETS

Compound	IC50 [1]	IC50 [2]
O=C(Nc1ccc(Oc2ccnc3[nH]c(=O)[nH]c23)c(F)c1)c1ncn(-c2ccccc2)c1C(F)(F)F [Example 1, N-(3-fluoro-4-((2-oxo-2,3-dihydro-1H-imidazo[4,5-b]pyridine-7-yl)oxy)phenyl)-1-phenyl-5-(trifluoromethyl)-1H-imidazole-4-carboxamide]	> 5000 nM	< 50 nM
O=C(Nc1ccc(Oc2ccnc3[nH]c(=O)[nH]c23)c(F)c1)c1cnn(-c2ccccc2)c1C(F)(F)F [Example 2, N-(3-fluoro-4-((2-oxo-2,3-dihydro-1H-imidazo[4,5-b]pyridine-7-yl)oxy)phenyl)-1-phenyl-5-(trifluoromethyl)-1H-pyrazole-4-carboxamide]	> 5000 nM	< 50 nM
CCn1c(=O)[nH]c2nccc(Oc3ccc(NC(=O)c4ncn(-c5ccccc5)c4C(F)(F)F)cc3F)c21 [Example 3, N-(4-((1-ethyl-2-oxo-2,3-dihydro-1H-imidazo[4,5-b]pyridine-7-yl)oxy)-3-fluorophenyl)-1-phenyl-5-(trifluoromethyl)-1H-imidazole-4-carboxamide]	> 5000 nM	< 50 nM
CCn1c(=O)[nH]c2nccc(Oc3ccc(NC(=O)c4cnn(-c5ccccc5)c4C(F)(F)F)cc3F)c21 [Example 4, N-(4-((1-ethyl-2-oxo-2,3-dihydro-1H-imidazo[4,5-b]pyridine-7-yl)oxy)-3-fluorophenyl)-1-phenyl-5-(trifluoromethyl)-1H-pyrazole-4-carboxamide]	> 5000 nM	< 50 nM
Cn1c(=O)[nH]c2nccc(Oc3ccc(NC(=O)c4ncn(-c5ccccc5)c4C(F)(F)F)cc3F)c21 [Example 5, N-(3-fluoro-4-((1-methyl-2-oxo-2,3-dihydro-1H-imidazo[4,5-b]pyridine-7-yl)oxy)phenyl)-1-phenyl-5-(trifluoromethyl)-1H-imidazole-4-carboxamide]	> 5000 nM	< 50 nM
Cn1c(=O)[nH]c2nccc(Oc3ccc(NC(=O)c4cnn(-c5ccccc5)c4C(F)(F)F)cc3F)c21 [Example 6, N-(3-fluoro-4-((1-methyl-2-oxo-2,3-dihydro-1H-imidazo[4,5-b]pyridine-7-yl)oxy)phenyl)-1-phenyl-5-(trifluoromethyl)-1H-pyrazole-4-carboxamide]	> 5000 nM	< 50 nM
CC(C)n1c(=O)[nH]c2nccc(Oc3ccc(NC(=O)c4cnn(-c5ccccc5)c4C(F)(F)F)cc3F)c21 [Example 7, N-(3-fluoro-4-((1-isopropyl-2-oxo-2,3-dihydro-1H-imidazo[4,5-b]pyridine-7-yl)oxy)phenyl)-1-phenyl-5-(trifluoromethyl)-1H-pyrazole-4-carboxamide]	500 to 5000 nM	< 50 nM
CC(C)n1c(=O)[nH]c2nccc(Oc3ccc(NC(=O)c4ncn(-c5ccccc5)c4C(F)(F)F)cc3F)c21 [Example 8, N-(3-fluoro-4-((1-isopropyl-2-oxo-2,3-dihydro-1H-imidazo[4,5-b]pyridine-7-yl)oxy)phenyl)-1-phenyl-5-(trifluoromethyl)-1H-imidazole-4-carboxamide]	> 5000 nM	< 50 nM
CCc1c(C(=O)Nc2ccc(Oc3ccnc4[nH]c(=O)[nH]c34)c(F)c2)cnn1-c1ccccc1 [Example 9, 5-ethyl-N-(3-fluoro-4-((2-oxo-2,3-dihydro-1H-imidazo[4,5-b]pyridine-7-yl)oxy)phenyl)-1-phenyl-1H-pyrazole-4-carboxamide]	> 5000 nM	50 to 500 nM
CCc1c(C(=O)Nc2ccc(Oc3ccnc4[nH]c(=O)n(C(C)C)c34)c(F)c2)cnn1-c1ccccc1 [Example 10, 5-ethyl-N-(3-fluoro-4-((1-isopropyl-2-oxo-2,3-dihydro-1H-imidazo[4,5-b]pyridine-7-yl)oxy)phenyl)-1-phenyl-1H-pyrazole-4-carboxamide]	500 to 5000 nM	< 50 nM
O=C(Nc1ccc(Oc2ccnc3[nH]c(=O)n(C4CCOCC4)c23)c(F)c1)c1ncn(-c2ccccc2)c1C(F)(F)F [Example 11, N-(3-fluoro-4-((2-oxo-1-(tetrahydro-2H-pyran-4-yl)-2,3-dihydro-1H-imidazo[4,5-b]pyridine-7-yl)oxy)phenyl)-1-phenyl-5-(trifluoromethyl)-1H-imidazole-4-carboxamide]	> 5000 nM	< 50 nM
Cc1nn(-c2ccccc2)c(C)c1C(=O)Nc1ccc(Oc2ccnc3[nH]c(=O)[nH]c23)c(F)c1 [Example 12, N-(3-fluoro-4-((2-oxo-2,3-dihydro-1H-imidazo[4,5-b]pyridine-7-yl)oxy)phenyl)-3,5-dimethyl-1-phenyl-1H-pyrazole-4-carboxamide]	> 5000 nM	50 to 500 nM
Cc1nn(-c2ccccc2)c(C)c1C(=O)Nc1ccc(Oc2ccnc3[nH]c(=O)n(C(C)C)c23)c(F)c1 [Example 13, N-(3-fluoro-4-((1-isopropyl-2-oxo-2,3-dihydro-1H-imidazo[4,5-b]pyridine-7-yl)oxy)phenyl)-3,5-dimethyl-1-phenyl-1H-pyrazole-4-carboxamide]	50 to 500 nM	< 50 nM
Cc1c(C(=O)Nc2ccc(Oc3ccnc4[nH]c(=O)n(C(C)C)c34)c(F)c2)cnn1-c1ccccc1 [Example 14, N-(3-fluoro-4-((1-isopropyl-2-oxo-2,3-dihydro-1H-imidazo[4,5-b]pyridine-7-yl)oxy)phenyl)-5-methyl-1-phenyl-1H-pyrazole-4-carboxamide]	500 to 5000 nM	< 50 nM
CC(C)n1c(=O)[nH]c2nccc(Oc3ccc(NC(=O)c4cnc(-c5ccccc5)s4)cc3F)c21 [Example 15, N-(3-fluoro-4-((1-isopropyl-2-oxo-2,3-dihydro-1H-imidazo[4,5-b]pyridine-7-yl)oxy)phenyl)-2-phenylthiazole-5-carboxamide]	> 5000 nM	50 to 500 nM
CC(C)n1c(=O)[nH]c2nccc(Oc3ccc(NC(=O)c4ncc(-c5ccccc5)s4)cc3F)c21 [Example 16, N-(3-fluoro-4-((1-isopropyl-2-oxo-2,3-dihydro-1H-imidazo[4,5-b]pyridine-7-yl)oxy)phenyl)-5-phenylthiazole-2-carboxamide]	> 5000 nM	50 to 500 nM
Cc1ccc(-n2ncc(C(=O)Nc3ccc(Oc4ccnc5[nH]c(=O)n(C(C)C)c45)c(F)c3)c2C(F)(F)F)cc1 [Example 17, N-(3-fluoro-4-((1-isopropyl-2-oxo-2,3-dihydro-1H-imidazo[4,5-b]pyridine-7-yl)oxy)phenyl)-1-(p-tolyl)-5-(trifluoromethyl)-1H-pyrazole-4-carboxamide]	> 5000 nM	50 to 500 nM
COc1ccccc1-n1ncc(C(=O)Nc2ccc(Oc3ccnc4[nH]c(=O)n(C(C)C)c34)c(F)c2)c1C(F)(F)F [Example 18, N-(3-fluoro-4-((1-isopropyl-2-oxo-2,3-dihydro-1H-imidazo[4,5-b]pyridine-7-yl)oxy)phenyl)-1-(2-methoxyphenyl)-5-(trifluoromethyl)-1H-pyrazole-4-carboxamide]	500 to 5000 nM	50 to 500 nM
